Consider one compound from patent US20090124501A1, “Silicic Acid Componenet Supplying Agent For Algae And Method For Supplying Silicic Acid Component To Algae” (Incorporated Administrative Agency Fisheries Research Agency, priority 2006, published 2009).

This experiment deals with Chaetoceros. Briefly: Pigment and chlorophyll a content of Chaetoceros cultured for 20 days. Format: cell-based. As for the experimental part:
With respect to Chaetoceros cultured for 20 days after the silicic acid hydrogel and sodium metasilicate were added in an experimental plot and a control plot, respectively, under the same conditions as in Embodiment 3, difference in pigment and chlorophyll a content were examined. 20 mL of culture solution was collected from each of the experimental plot and the control plot, each cell density was measured, and only the cells were collected by suction filtration with a GF/F filter having a diameter of 47 mm (Whatman International Ltd.). Chlorophyll a was measured by a fluorescence method with a fluorometer (Turner Designs, Inc.) or by a measurement method with a spectrophotometer (Shimadzu Corporation).

For `O=[Si]([O-])[O-].[Na+].[Na+]` [sodium metasilicate], under “Chaetoceros cultured for 20 days”, the chlorophyll a content is 0.12-0.16 pg/cell. Further, the “color of Chaetoceros collected on the filters, visual observation” value (after culturing for 20 days, GF/F filter) is “light brown color”.
